Molecular target: T1, TSPO (Rattus norvegicus, UniProt P16257)
T1 construct: Thirty-three adult male Sprague–Dawley rats; from tissue; host or cells: living adult male Sprague-Dawley rats; heart, LV anterior wall, lung and brain VOIs
Experiment: PET/CT imaging and kinetic modelling in rat MI model, day 7
Type: in vivo
Set-up: k4 (2T analysis), mean / K1 (2T analysis), mean / k2 (2T analysis), mean / k3 (2T analysis), mean: unit not given here
Conditions: for K1 (2T analysis), mean / VT (2T analysis), mean / k2 (2T analysis), mean / k3 (2T analysis), mean / k3/k4 (2T analysis), mean / k4 (2T analysis), mean: MI n = 9
Method: For MI studies, anesthesia was induced and maintained using isoflurane (0.5%–3% in oxygen, 1 L/min) before buprenorphine (0.05 mg/kg; Alstoe Ltd.) was administered preoperatively for analgesia. Tracheal intubation was achieved under direct vision, and ventilation was maintained with a rodent ventilator (model 683 [Harvard Apparatus]; tidal volume, 2.5 cm^3; respiratory rate, 60/min). MI was induced as we have previously described ([18]), and further details can be found in the supplemental materials. Animals were imaged within 1 d of day 7 after MI, referred to as day 7 throughout the article.
Thirty-two PET scans were performed with ^18F-LW223 (17.8 ± 1.5 MBq, intravenous bolus, mean ± SEM). Naïve and MI rat scans were acquired immediately after intravenous bolus injection of ^18F-LW223. […] Dosimetry studies were conducted using mice and 240-min PET scans.
Reconstructed scans were imported into PMOD, version 3.8 (PMOD Technologies). Volumes of interest (VOIs) were manually drawn around the brain, heart, and lung using CT images. To sample the infarct area (or an equivalent area in naïve hearts), averaged PET images (0–120 min) were used to place 3 spheric VOIs at the center of the infarct territory within the ventricular wall (1.5 mm^3). […] Time–activity curves were generated, and SUVs were calculated as concentration in the VOI divided by injected dose divided by animal weight. Kinetic modeling was performed using the 2-tissue-compartment model to estimate the kinetic rate constants K1–k4 and the total volume of distribution (VT) in different tissues. Blood volume fraction (VB) was not modeled in this study. Two-tissue-compartment modeling was selected as the preferred model on the basis of a comparison of goodness and robustness of fitting versus several other models (Supplemental Fig. 3; Supplemental Table 2). The binding potential relative to nondisplaceable volume (BPND) was defined as k3/k4 ([19]). The transfer-corrected BPND, termed BPTC, was formulated as follows:Eq. 1 BPTC=k3/k4÷K1, […]
where k3 is the radiotracer association rate with specific binding, k4 is the dissociation rate constant of target ligand, and K1 is the rate constant for transfer from arterial plasma to tissues. When tissue blood flow is impaired, such as after MI, K1→blood flow, as per the Renkin–Crone equation:Eq. 2 K1=F×E=F (1−e^− PS/F), […]
Invasive Input Function Measurement
Polyethylene catheters (PE50) filled with heparinized saline (20 IU/mL) were inserted into the left femoral artery and vein with the help of a stereomicroscope and securely fastened with ligatures (6-0 silk thread). Catheters were held in place with […]
Rat Myocardial Infarction Procedure
Briefly, the skin was incised at the level of the left third and fourth ribs where the pectoral muscles were divided and retracted. Left lateral thoracotomy was then performed. With minimal handling, the pericardium was ruptured and the heart gently exteriorized from the thorax, and a nonabsorbable 5-0 ligature was placed around the left anterior descending coronary artery just above the bifurcation of the first diagonal and maneuvered back into position. Before wound closure, a drain was inserted to assist with removal of air and fluid from the thorax. Once removed, the wound was then closed in three layers. Animals were recovered and extubated once spontaneous ventilation was established, housed at 30 °C for 24 hours and given sterile sodium chloride 0.9% 0.01 mL/g fluid therapy subcutaneously in addition to another dose of Buprenorphine. After 24 hours, normal housing conditions were resumed.
Radiometabolite Blood and Tissue Processing and Analysis
All blood samples were 1 mL each and manually collected from different animals to generate a population curve, in order to respect total blood volume limits for terminal arterial blood collections in rats. Following blood and tissue collection, all samples were […]

## CC[C@@H](C)N(C)C(=O)c1nc2ccccc2c(-c2ccccc2)c1C[18F] [^18F-LW223]
Brain
  K1 (2T analysis), mean: 0.17
  VT (2T analysis), mean: 2.21
  k2 (2T analysis), mean: 0.19
  k3 (2T analysis), mean: 0.023
  k3/k4 (2T analysis), mean: 1.42
  k4 (2T analysis), mean: 0.02
Global Heart
  K1 (2T analysis), mean: 0.58
  VT (2T analysis), mean: 12.57
  k2 (2T analysis), mean: 0.36
  k3 (2T analysis), mean: 0.04
  k3/k4 (2T analysis), mean: 6.62
  k4 (2T analysis), mean: 0.01
LV Anterior Wall
  K1 (2T analysis), mean: 0.25
  VT (2T analysis), mean: 13.62
  k2 (2T analysis), mean: 0.18
  k3 (2T analysis), mean: 0.025
  k3/k4 (2T analysis), mean: 7.92
  k4 (2T analysis), mean: 0.01
Lung
  K1 (2T analysis), mean: 1.08
  VT (2T analysis), mean: 10.43
  k2 (2T analysis), mean: 0.39
  k3 (2T analysis), mean: 0.046
  k3/k4 (2T analysis), mean: 2.49
  k4 (2T analysis), mean: 0.02
MI cohort, infarct territory of anterior wall, 7 d after MI
  BPTC: 32.7 ± 5.0 cm^3/mL/min
rat, in vivo
  reduction of K1 in LV anterior wall, MI vs naïve: 3.6 fold
  reduction of k2 in LV anterior wall, MI vs naïve: 1.4 fold

Reference: PMC8049364, “Quantification of Macrophage-Driven Inflammation During Myocardial Infarction with ^18F-LW223, a Novel TSPO Radiotracer with Binding Independent of the rs6971 Human Polymorphism” (Journal of Nuclear Medicine, 2021)
